These results are taken from PubChem BioAssay AID540306 (Sanford-Burnham Center for Chemical Genomics, 2011).

By EC50 is commonly meant the concentration that produces a half-maximal response.

The assay addresses CHO-CHOP luciferase reporter, UPR apoptotic arm activation. Description: PERK-eIF2a-CHOP apoptotic UPR arm activators, SAR follow-up, counter-screen for UPR adaptive arm activator project, CHO-CHOP cells, luminescence (AID 540306). (Counterscreens check selectivity or assay interference.)

The source made the active and inactive calls.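 Rule for the calls: active = mean EC50 of 20 µM or lower; inactive = the rest.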

With `Cc1cc(=O)[nH]c(Nc2nc(C)c3ccccc3n2)n1`, the EC50 was > 80 µM (inactive).
`Cc1nc(Nc2nc(-c3ccccc3)cc(=O)[nH]2)nc2ccccc12`: the EC50 was > 80 µM (inactive).
As for `Cc1nc(Nc2nccc(-c3ccccc3)n2)nc2ccccc12`, the EC50 entry is “inactive”.
As for `COc1cc(-c2ccccc2)nc(Nc2nc(C)c3ccccc3n2)n1`, the EC50 is > 80 µM (inactive).
For `Cc1nc(Nc2ncccn2)nc2ccccc12` the value was > 80 µM (inactive); for `Cc1ccnc(Nc2ncccn2)n1`, > 80 µM (inactive).
Regarding `Cc1cc(-c2ccccc2)nc(Nc2nc(C)c3ccccc3n2)n1`, the EC50 is > 80 µM (inactive).
For `Cc1ccnc(Nc2nc(-c3ccccc3)cc(=O)[nH]2)n1`, the EC50 was > 80 µM (inactive).
